Results published in US11332483B2, “Naphthoquinone containing gold carbene complexes and methods of uses thereof” (BOARD OF REGENTS, THE UNIVERSITY OF TEXAS SYSTEM, priority 2017, dated 2022).
Where two headings read alike, the source gives them in different places.

Legend:
[1] = test system: A549 lung cancer cells; assay: Cell proliferation (MTT) assay in A549 lung cancer cells; assay type: cell-based, human; settings: for Fold Difference relative to 1: A549 IC50 relative to complex 1
Description: (§1) Cells were harvested and seeded into 96-well culture plates (Costar 07-200-90) in 100 μL of culture media. They were allowed to incubate overnight at 37° C. in the presence of 5% CO2. A549 was seeded at a density of 1000 cells/well, A2780 at 2500 cells/well, A2780CP at 3000 cells/well, and PC-3 at 2000 cells/well. The next day, appropriate serial dilutions of drug stocks in culture media were made. To each well of a 96 well plate was added 100 μL of the appropriate solution. After a total of three days, a […] aliquot of 3 mg/mL tetrazolium dye, 344,5-dimethylthiazol-2-yl)-2,5-diphenyltetrazolium bromide (Alfa Aesar L11939) was added to each well, followed by a 4 hr incubation period at 37° C. The medium was then removed, the resulting formazan was dissolved in […] DMSO and the respective absorbances were measured at 560-650 nm using a microplate reader (Molecular Devices, Sunnyvale, Calif.). Absorbance values were corrected for background and then normalized to wells containing untreated cells to allow for plate-to-plate comparisons. The data are shown as mean inhibition of proliferation or growth as a percentage of control cells and are from 2-3 replicate experiments. Resulting dose response curves were subjected to linear regression analysis (Origin by OriginLab, Inc.) for determination of IC50 values.

[2] = test system: A549 lung cancer cells; assay: ICP-MS detection of intracellular Au (cellular uptake)
Description: Roughly 7−8×10^6 cells were grown to 70-80% confluence in T-75 cell culture flasks (Thermo 130190) and treated with respective compound in RPMI medium supplemented with 10% FBS and antibiotics for the desired incubation time. The medium was then removed and cells were washed with 8 mL 1× warm PBS. 2 mL 1×PBS was then added to each flask, and the cells were removed by scraping. Each cell suspension was then pipetted into a clean, labeled 15 mL centrifuge tube (Thermo 339650). Cells were pelleted by centrifuging at 1,000 rpm for 5 min in an Eppendorf 5804 with a swing-bucket rotor. The supernatant was removed by vacuum aspiration, and the pellet was resuspended in 50 μL autoclaved deionized water. Suspension/lysates were then kept at −80° C. until further use. After thawing, the lysates were then sonicated using a Branson Digital Sonifier, and 5 μL aliquots were taken for determination of protein content of the sample. Lysates were digested with 80 μL aqua regia and heated to 65° C. for 1 h. Digested lysates were diluted with 4 mL 3% Trace Metal Grade HCl and gold content was measured on a Perkin Elmer NexION 300× set to detect gold at 197 m/z. Gold concentrations were quantified using the linear range of a standard curve generated by serial dilution of an ICP-MS gold standard (Ricca MSAU1KH-100) in 3% HCl. Values were then normalized to protein content as determined using a Modified Lowry Protein Assay Kit (Thermo 23240) and known concentrations of bovine serum albumin (Fisher 9048-46-8).
The Modified Lowry Assay was used to determine the protein content of each sample for normalization purposes. The standard curve for each run was made from a 2-fold serial dilution of fresh 5 mg/mL BSA solution. Aliquots were diluted to within the linear range of the standard curve using autoclaved DI water, and subjected to the Modified Lowry Assay in round-bottomed 96-well clear plates (Fisher 12565500). […] All other aspects of the procedure were as detailed in the microplate procedure instructions that come with the kit.

[3] = test system: A549 cells; assay: Detection of intracellular ROS by flow cytometry (CM-H2DCFDA); assay type: cell-based, human; settings: for intracellular ROS increase: A549, dose responsive, 6 h, in words
Description: To establish whether or not the complexes of this disclosure would increase intracellular ROS levels, A549 cells were treated with each complex in a dose responsive manner.
Tumor cells (1×10^6) were plated in a 6-well plate overnight and then incubated with media containing various complexes described at concentrations of 0.625-2.5 μM. Control cells were treated with vehicle only. After a 6 h. incubation, the cells were washed with PBS, detached with 0.250 mL 1× trypsin, collected in a 15 mL conical tube, and pelleted by centrifugation (3 min @ 300 g) at 5° C. The resulting pellet was again washed 2× with cold PBS and pelleted at 5° C. […] The cells were then pelleted, washed with 2 mL PBS, and re-suspended in PBS containing 2 μg/mL propidium iodide (PI, Chemodex P0023) for a final cell concentration of 0.5×10^6 cells/mL. Control samples of unstained cells, cells stained with only CM-H2DCFDA, and cells stained with only PI were also prepared. Each sample was added to one well of a 96-well plate. Samples were then subjected to FACS analysis using a Millipore Guava easyCyte 8 and analyzed using the Guava inCyte software.

[4] = test system: thioredoxin reductase (TrxR) in A549 cells; assay: Lipoate reduction assay of thioredoxin reductase activity in live cells; assay type: cell-based, human; settings: for inhibition of TrxR (lipoate reduction): 6 h; for TrxR activity by lipoate reduction, time and dose dependence: A549, in words
Description: To assess whether any or all of the present gold complexes could serve as TrxR inhibitors, standard tests involving the reduction of the oxidized form of the cell-permeable cofactor lipoate to its corresponding reduced form, dihydrolipoate, were carried out. […] [Cl] and 5 (cocktail), auranofin, and doxorubicin for 6 h. Post treatment, the live cells were monitored colorimetrically over 180 min for their ability to reduce lipoate (FIG. 5A).
Cells were harvested and seeded at a density of 10,000 cells/well A549 in 96-well culture plates. They were then incubated overnight at 37° C. and 5% CO2. The next day, appropriate serial dilutions of drug stock in culture media were performed, and 100 μL of the appropriate solution were added to each well. Cells were returned to the incubator for 6 h. Afterwards, the liquid was then removed from each well by vacuum aspiration and replaced by 100 μL of 5 mM lipoate (Tokyo Chemical Industry Co., Ltd. L0207) and 1 mM DTNB (Acros Organics 117540050) in HBSS (Life tech 14025-092). The absorbance of each well at […] was recorded immediately and once every 20 min for three h on a microplate reader (Molecular Devices, Sunnyvale, Calif.). Plates were covered with aluminum foil between readings.

[5] = Electrochemical analysis (differential pulse voltammetry) in DMSO; assay type: physicochemical; settings: 0.1M [N(nBu)4][PF6], 0.1 mM analyte, vs SCE
Description: [Cl] (Guth et al., 2011; Gómez et al., 2003).
1,3-Dimesitylnapthoquinimidazolium chloride (Sanderson et al., 2006; Tennyson et al., 2010), (1,3-dimesityl-4,5-naphthoquino-imidazol-2-ylidene)-silver(I) chloride (Sanderson et al., 2006; Tennyson et al., 2010), (C4H2S)AuCl (Hashmi, et al., 2010) were prepared according to the literature procedures. All other reagents were purchased from commercial sources and used as received, including: [((CH3)3Si)2N]Na (NaHMDS) and silver(I) oxide. CD2Cl2 (99.9%) was purchased from Acros Laboratories in glass ampules and used as received. Solvents were either dried with a solvent purification system from the Inert Innovative Technology, Inc. (dichloromethane, diethyl ether, hexanes, tetrahydrofuran and toluene) or freshly distilled over 3 Å molecular sieves and degassed using three consecutive freeze-pump-thaw cycles prior to use. UV-vis spectra were obtained at ambient temperature with a Hewlett-Packard 8452A diode array spectrophotometer with molar absorptivities reported in M^−1 cm^−1. ^1H and ^13C NMR spectra were recorded on Bruker 300 MHz spectrometer. Spectra were referenced to the residual solvent as an internal standard, for ^1H NMR: CD2Cl2, 5.32 ppm and ^13C NMR: CD2Cl2, 53.84 ppm. High-resolution mass spectra (HRMS) were obtained with an Agilent Technologies 6530 Accurate Mass Q-TOF LC/MS (ESI) and are reported as m/z (relative intensity). Electroanalytical measurements were performed on a CHI620E electrochemical workstation using a silver wire quasi-reference electrode, a platinum disk working electrode and a Pt wire auxiliary electrode in a three-electrode cell under an atmosphere of nitrogen. […] All potentials listed herein were determined by differential pulse voltammetry and referenced to a saturated calomel electrode (SCE) by shifting ferrocene^0/+ to 0.435 V (DMSO) (Aranzaes et al., 2006). Spectroelectrochemistry measurements were obtained at ambient temperature with a custom designed three-electrode cell using Hewlett-Packard 8452A diode array spectrophotometer and CHI620E. Elemental analyses were performed by Midwest Microlab, LLC in Indianapolis, Ind. […] Trypsin (Hyclone SH30236.01) and Dulbecco's Phosphate Buffer Saline (Sigma R5886) were used for general cell maintenance and harvesting. Cell lines were obtained from the ATCC (A549 and PC-3) and Prof. Zahid Siddik at MD Anderson (A2780 and A2780CP). Thiazolyl blue tetrazolium bromide (Alfa Aesar L11939) was used for cell proliferation assays. Cell culture plastic ware consisted of generic T-75 flasks, 80.5 mm diameter culture dishes, and treated 96-well plates.

[6] = test system: Panc-02 cells
[7] = test system: A2780 ovarian (wt-p53, platinum sensitive); assay: Cell proliferation (MTT) assay in A2780 ovarian cells; assay type: cell-based; settings: Table 3; error is standard error of the mean
Description: (§2) Further anti-proliferation studies were carried out with complex 1 and its naphthoquinone component 4[H][Cl] using the following cell lines: A2780 ovarian (a wt-p53 cell line sensitive to platinum treatment), 2780CP ovarian (isogenic to A2780 but expressing multi-drug resistance (MDR)), and PC-3 prostate (p53 null) (Table 3).
as §1, with “The data are shown as mean inhibition of proliferation or growth as a percentage of control cells and are from 2-3 replicate experiments. Resulting dose response curves were subjected to linear regression analysis (Origin by OriginLab, Inc.) for determination of IC50 values.” left out

[8] = test system: 2780CP ovarian (multi-drug resistant); assay: Cell proliferation (MTT) assay in 2780CP ovarian cells; assay type: cell-based; settings: Table 3; error is standard error of the mean
Description: as §2
as §1, with “The data are shown as mean inhibition of proliferation or growth as a percentage of control cells and are from 2-3 replicate experiments. Resulting dose response curves were subjected to linear regression analysis (Origin by OriginLab, Inc.) for determination of IC50 values.” left out

[9] = test system: PC-3 prostate (p53 null); assay: Cell proliferation (MTT) assay in PC-3 prostate cells; assay type: cell-based; settings: Table 3; error is standard error of the mean
Description: as §2
as §1, with “The data are shown as mean inhibition of proliferation or growth as a percentage of control cells and are from 2-3 replicate experiments. Resulting dose response curves were subjected to linear regression analysis (Origin by OriginLab, Inc.) for determination of IC50 values.” left out

[10] = test system: A549 cells; settings: A549, 24 h
Description: Control cells were treated with vehicle only. At 24 h, the media was collected and the cells were washed with PBS. The PBS washing was collected and the attached cells were then subjected to 0.5× trypsin (diluted with PBS) for 2 min. All media and washings were collected, pelleted by centrifugation (3 min @ 300 g) and washed twice with cold PBS. […] After this, 100 μL of cell suspension was added to 1.5 mL centrifuge tubes, followed by 5 μL each of Annexin V-FITC and propidium iodide (PI, 50 μg/mL) solution. Control samples of unstained cells, cells stained with only Annexin V-FITC, and cells stained with only PI were also prepared. Samples were allowed to incubate in the dark for 15 min at ambient temperature. After incubation, each sample was diluted with 200 μL of Annexin V binding buffer, and the resulting 300 μL sample was added to one well of a 96-well plate. Samples were then subjected to FACS analysis using a Millipore Guava easyCyte 8 and analyzed using Guava inCyte software.

[11] = A549 lung cancer cells, MTT, 72 h, read-out: IC50
[12] = A549, low concentrations (0.1-0.6 μM)
[13] = A549, higher concentrations (1.25-5.0 μM)

| SMILES | Fold Difference relative to 1 [1] | IC50 [1, 11] [nM] | intracellular ROS increase [3] | inhibition of TrxR (lipoate reduction) [4, 12] | E1/2 (V) DPV, first reduction, formation of semiquinone radical [5] [V] | E1/2^b (V) DPV, second reduction, formation of quinone dianion [5] [V] | TrxR activity by lipoate reduction, time and dose dependence [4] | inhibition of TrxR (lipoate reduction) [4, 13] | further results |
| --- | --- | --- | --- | --- | --- | --- | --- | --- | --- |
| CC(=O)OC[C@H]1O[C@@H]([S-])[C@H](OC(C)=O)[C@@H](OC(C)=O)[C@@H]1OC(C)=O.CCP(CC)CC.[Au+] [Auranofin, auranofin] | 22.9 | 1670 ± 50 | minimal or no ROS increase | inhibition of TrxR was apparent | – | – | – | – | increase in intracellular Au concentrations as compared to complex 1 [2]: 2-5 fold |
| Cc1cc(C)c(-n2c3c([n+](-c4c(C)cc(C)cc4C)[c]2[Au-][c]2n(-c4c(C)cc(C)cc4C)c4c([n+]2-c2c(C)cc(C)cc2C)C(=O)c2ccccc2C4=O)C(=O)c2ccccc2C3=O)c(C)c1.[Cl-] [Compound 2] | 1 | – | performed similarly | – | −0.46 | −1.31 | performed similarly | – | presence of CRT on cells ([6]; Panc-02, 0.1 μM): 6.1±1.6 % of cells; presence of CRT on cells ([6]; Panc-02, 1.0 μM): 33.4±5.8 % of cells |
| Cc1cc(C)c(-n2c3c([n+](-c4c(C)cc(C)cc4C)[c]2[Au-][Cl])C(=O)c2ccccc2C3=O)c(C)c1 [Compound 3, (1,3-Dimesityl-4,5-naphthoquino-imidazol-2-ylidene)-gold(I) Chloride] | 165 | 12100 | minimal or no ROS increase | – | −0.47 | −1.31 | – | remained inactive | intracellular Au levels (ICP-MS) [2]: no intracellular Au was detected |
| Cc1cc(C)c(-n2c[n+](-c3c(C)cc(C)cc3C)c3c2C(=O)c2ccccc2C3=O)c(C)c1.[Cl-] [Compound 4[H][Cl], 1,3-Dimesitylnaphthoquinimidazolium chloride, reference compound] | 13.6 | 990 ± 120 | – | – | −0.38 | −1.15 | – | became evident | IC50 ([1]; A549 lung cancer cells, MTT, 72 h, listed as 4, read-out: IC50): 994 nM; IC50 ([1]; Table 3, error is standard error of the mean, read-out: IC50 A549 Lung): 994 ± 120 nM; IC50 [7]: 159 ± 58 nM; IC50 [8]: 626 ± 117 nM; IC50 [9]: 136 ± 20 nM; fluorescence associated cell population shift (intracellular ROS increase) ([3]; A549, 2.5 μM, 6 h incubation): ~11 fold |
| COc1cccc2c1C(=O)c1c(O)c3c(c(O)c1C2=O)C[C@@](O)(C(=O)CO)C[C@@H]3O[C@H]1C[C@H](N)[C@H](O)[C@H](C)O1 [Doxorubicin, doxorubicin] | 1.41 | – | minimal or no ROS increase | little to no inhibition | – | – | no inhibition of activity | remained inactive | IC50 ([1]; Homo sapiens, A549 lung cancer cells, MTT, 72 h, read-out: IC50): 103 ± 23 nM; induction of apoptosis (annexin-V/PI) [10]: provided similar results in both the early and late stage apoptotic quadrants |
| O=C1[O][Pt]2([NH][C@@H]3CCCC[C@H]3[NH]2)[O]C1=O [oxaliplatin, reference compound] | – | – | – | – | – | – | – | – | presence of CRT on cells ([6]; Panc-02, 300 μM): 18.6±2.8 % of cells |
